In brackets after ≈: the same amount, converted by molar mass.
Tests used:
[1] = molecular target: Protein farnesyltransferase (Homo sapiens, UniProt P49354+P49356); assay: Inhibition of FTase (unknown origin) assessed as reduction in transfer of [3H]FPP to Ki-Ras; assay type: protein-complex assay
Rattus norvegicus [2] = assay: Anti-inflammatory activity in rat assessed as inhibition of carrageenan-induced paw edema relative to control; assay type: functional
HeLa = assay: Antiproliferative activity against human HeLa cells; assay type: functional, cell-based
[3] = Inhibition of Human cytomegalovirus protease; set-up: species or system Human betaherpesvirus 5
Staphylococcus aureus [4] = assay: Antibacterial activity against Staphylococcus aureus; assay type: functional
Candida albicans = assay: Antifungal activity against Candida albicans; assay type: functional
[5] = system: Human immunodeficiency virus 1; assay: Antiviral activity against HIV1 infected in human MT4 cells; assay type: functional, organism-based; details: Human immunodeficiency virus 1, MT4
Mycobacterium avium = assay: Antimycobacterial activity against Mycobacterium avium; assay type: functional
MT4 = assay: Antiproliferative activity against human MT4 cells; assay type: functional
HL-60 = assay: Antiproliferative activity against human HL60 cells; assay type: functional, cell-based
THP-1 = assay: Anti-inflammatory activity in human THP1 cells assessed as reduction in TNF production; assay type: functional, cell-based
[6] = molecular target: Prostaglandin G/H synthase 2 (Homo sapiens) (UniProt P35354); assay: Inhibition of COX2 (unknown origin) at 10 uM relative to control
[7] = molecular target: Prostaglandin G/H synthase 1 (Homo sapiens) (UniProt P23219); assay: Inhibition of COX1 (unknown origin) at 10 uM relative to control
[8] = molecular target: Prostaglandin G/H synthase 2 (Homo sapiens, UniProt P35354); assay: Inhibition of COX2 (unknown origin)
Chymase = Chymase (Homo sapiens, UniProt P23946); assay: Inhibition of chymase in human mast cells using Suc-Ala-Ala-Pro-Phe-(p-nitroanilide) as substrate for 15 mins by spectrophotometric method; assay type: cell-based
Rattus norvegicus [9] = assay: Anti-inflammatory activity in rat assessed as inhibition of carrageenan-induced paw edema after 4 hrs relative to control; assay type: functional
A549 = assay: Antiproliferative activity against human A549 cells; assay type: functional, cell-based
P388 = assay: Antiproliferative activity against mouse P388 cells; assay type: functional, cell-based
[10] = Antiproliferative activity against human MEL28 cells; assay type: functional, cell-based; details: SK-MEL-28
HT-29 = assay: Antiproliferative activity against human HT-29 cells; assay type: functional, cell-based
[11] = system: Mycobacterium tuberculosis; assay: Antimycobacterial activity against Mycobacterium tuberculosis H37Rv; assay type: functional, organism-based
[12] = system: Mycobacterium tuberculosis; assay: Antimycobacterial activity against Mycobacterium tuberculosis; assay type: functional
HepG2 = assay: Antiproliferative activity against human HepG2 cells; assay type: functional, cell-based
[13] = system: Mycobacterium tuberculosis; assay: Antimycobacterial activity against Mycobacterium tuberculosis H37Ra; assay type: functional
Alternaria alternata = assay: Antifungal activity against Alternaria alternata assessed as zone of inhibition; assay type: functional
Staphylococcus aureus [14] = assay: Antibacterial activity against Staphylococcus aureus assessed as zone of inhibition; assay type: functional
Angiotensin II receptor = Angiotensin II receptor (Homo sapiens, UniProt P30556+P50052); assay: Antagonist activity at angiotensin-2 receptor (unknown origin); assay type: protein assay
Neutrophil [15] = assay: Anti-inflammatory activity in human neutrophils assessed as inhibition of fMLP/cytochalasin B-induced superoxide anion generation preincubated for 5 mins followed by fMLP/cytochalasin B addition and measured after 10 mins by spectrophotometric method; assay type: functional, cell-based
Neutrophil [16] = assay: Anti-inflammatory activity in human neutrophils assessed as inhibition of fMLP/cytochalasin B-induced elastase release preincubated for 5 mins followed by fMLP/cytochalasin B addition; assay type: functional, cell-based
Cryptococcus neoformans = assay: Antifungal activity against Cryptococcus neoformans; assay type: functional
[17] = Inhibition of Norovirus RNA-dependent RNA polymerase
Rattus norvegicus [18] = assay: Anti-inflammatory activity in Wistar albino rat assessed as inhibition of carrageenan-induced paw edema at 100 mg/kg, po via gavage measured after 1 hr by plethysmometric method relative to control; assay type: functional
Aspergillus niger = assay: Antifungal activity against Aspergillus niger by disk diffusion method; assay type: functional
[19] = Induction of apoptosis in human NB4.437r cells by Annexin V/propidium iodide staining based flow cytometry; assay type: functional, cell-based
Pichia kudriavzevii = assay: Antifungal activity against Candida krusei; assay type: functional
[20] = system: Human immunodeficiency virus 1; assay: Antiviral activity against HIV1; assay type: functional, organism-based

Chain of Prostaglandin G/H synthase 1 (Homo sapiens) (P23219 whole entry): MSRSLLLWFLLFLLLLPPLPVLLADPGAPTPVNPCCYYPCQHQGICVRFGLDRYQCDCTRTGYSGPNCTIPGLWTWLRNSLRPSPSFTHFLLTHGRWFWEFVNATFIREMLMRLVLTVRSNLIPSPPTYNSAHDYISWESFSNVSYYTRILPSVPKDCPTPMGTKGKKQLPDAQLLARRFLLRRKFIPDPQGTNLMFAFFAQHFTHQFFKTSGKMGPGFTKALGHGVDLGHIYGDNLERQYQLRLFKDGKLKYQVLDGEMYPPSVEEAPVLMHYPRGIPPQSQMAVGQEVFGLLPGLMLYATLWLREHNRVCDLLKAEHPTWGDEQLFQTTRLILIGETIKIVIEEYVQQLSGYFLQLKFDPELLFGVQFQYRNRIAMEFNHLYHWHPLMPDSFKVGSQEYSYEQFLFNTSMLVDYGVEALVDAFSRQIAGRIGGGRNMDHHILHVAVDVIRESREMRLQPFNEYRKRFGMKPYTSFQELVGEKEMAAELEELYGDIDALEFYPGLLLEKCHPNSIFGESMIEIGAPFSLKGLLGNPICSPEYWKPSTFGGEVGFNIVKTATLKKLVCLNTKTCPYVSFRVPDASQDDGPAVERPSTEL
Chain of Prostaglandin G/H synthase 2 (Homo sapiens) (P35354 whole entry): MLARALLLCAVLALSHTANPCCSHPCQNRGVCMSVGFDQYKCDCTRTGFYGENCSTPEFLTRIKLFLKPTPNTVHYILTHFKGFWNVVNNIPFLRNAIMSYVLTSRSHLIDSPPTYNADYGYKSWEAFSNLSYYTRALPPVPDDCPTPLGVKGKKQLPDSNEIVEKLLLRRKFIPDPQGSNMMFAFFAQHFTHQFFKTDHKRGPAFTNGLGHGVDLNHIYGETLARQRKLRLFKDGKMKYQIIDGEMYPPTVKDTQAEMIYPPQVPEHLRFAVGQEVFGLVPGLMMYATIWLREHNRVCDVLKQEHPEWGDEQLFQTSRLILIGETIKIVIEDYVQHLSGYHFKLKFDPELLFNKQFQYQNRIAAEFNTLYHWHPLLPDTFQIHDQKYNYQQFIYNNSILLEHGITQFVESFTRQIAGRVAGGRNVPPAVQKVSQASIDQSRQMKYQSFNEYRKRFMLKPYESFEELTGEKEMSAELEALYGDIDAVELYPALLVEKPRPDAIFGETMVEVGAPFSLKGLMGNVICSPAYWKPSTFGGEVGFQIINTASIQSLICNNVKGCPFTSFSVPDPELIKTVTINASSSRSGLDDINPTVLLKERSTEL
Chain of Prostaglandin G/H synthase 2 (P35354 whole entry): as above
Chain of Chymase (P23946 whole entry): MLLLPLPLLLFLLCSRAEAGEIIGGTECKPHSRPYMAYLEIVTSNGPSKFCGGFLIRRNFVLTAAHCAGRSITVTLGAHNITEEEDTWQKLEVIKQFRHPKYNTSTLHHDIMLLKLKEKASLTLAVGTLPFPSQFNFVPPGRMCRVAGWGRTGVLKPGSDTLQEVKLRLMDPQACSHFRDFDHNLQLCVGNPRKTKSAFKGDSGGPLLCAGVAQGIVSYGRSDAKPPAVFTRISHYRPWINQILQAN

## CSCC[C@H](NC(=O)c1cccc2cc(NC[C@@H](N)CS)ccc12)C(=O)O
[1]
  IC50: 0.017 µM

## COc1ccccc1C1CC(Nc2ccc3ccccc3c2)=NN1C(C)=O (centres undefined)
Rattus norvegicus [2]
  inhibition (INH): 67.85%

## CN(C)CC1C(=O)c2cccc3cc([N+](=O)[O-])cc(c23)C1=O (centres undefined)
HeLa
  IC50: 0.15 µg/mL (≈ 0.503 µM)

## O=C(O)c1ccc(CNc2ccc3c(/C=C/c4ccc5ccc(Cl)cc5n4)cccc3c2)cc1
[3]
  IC50: 2.7 µM

## CC(C)NC(=N)c1ccc2c(c1)nc(-c1ccc3c(c1)C(C)(C)CCC3(C)C)n2Cc1ccc2ccccc2c1
Staphylococcus aureus [4]
  MIC: 0.78 µg/mL (≈ 1.48 µM)
Candida albicans
  MIC: 0.78 µg/mL (≈ 1.48 µM)

## O=C(COc1ccc2ccccc2c1)NCc1nnc(SCc2nc3ccccc3[nH]2)n1-c1ccccc1
[5]
  EC50: 0.2 µg/mL (≈ 0.384 µM)

## O=C(Nc1cccc(F)c1)c1cccc2ccccc12
Mycobacterium avium
  MIC: 59 µM (≈ 15.7 µg/mL)

## COC(=O)C(NC(=O)COc1ccc2ccccc2c1)C(C)C (centres undefined)
MT4
  CC50: 42 µM

## COc1cc2c3c([nH]c2cc1Cl)C(=O)c1ccccc1C3=O
HL-60
  IC50: 53.1 µM

## CC(C)c1cccc(OC(=O)Nc2ccc(-c3ccc(CN4CCOCC4)nc3)c3ccccc23)c1
THP-1
  IC50: < 10 µM

## COc1ccc2cc(CCS(C)(=O)=O)ccc2c1
[6]
  inhibition: 65%
[7]
  inhibition: 29%
[8]
  IC50: 10 µM

## CCN(CC)CC1C(=O)c2cccc3cc([N+](=O)[O-])cc(c23)C1=O (centres undefined)
HeLa
  IC50: 2.5 µg/mL (≈ 7.66 µM)

## COc1ccc2c(c1)CCC(NS(C)(=O)=O)C2 (centres undefined)
[6]
  inhibition: 50%
[7]
  inhibition: 87%

## O=C(c1ccc2ccccc2c1)C(c1cccc2ccccc12)P(=O)(O)O (centres undefined)
Chymase
  Ki: 0.0023 µM

## Oc1c(C2=NNC(c3ccc(Br)cc3)C2)ccc2ccccc12 (centres undefined)
Rattus norvegicus [9]
  inhibition (INH): 68.96%

## COc1ccc(/C=C\c2ccc3ccccc3c2)cc1O
A549
  IC50: 7.4 µM
P388
  IC50: 6.4 µM
[10]
  IC50: 5.4 µM
HT-29
  IC50: 5.4 µM

## CSc1ncc(-n2nc(C(C)C)cc2NC(=O)Nc2ccc(-c3ccc(CN(C)C)nc3)c3ccccc23)cn1
THP-1
  IC50: < 10 µM

## Nc1ccc(-c2ccc(CC3CCOC3)c(O)c2)c2ccccc12 (centres undefined)
THP-1
  IC50: < 10 µM

## O=C1c2cccc3cc([N+](=O)[O-])cc(c23)C(=O)C1CN1CCCCC1 (centres undefined)
HeLa
  IC50: 2 µg/mL (≈ 5.91 µM)

## O=C(Cc1cccc2c1CCCC2)N/N=C/c1ccc(O)c([N+](=O)[O-])c1
[11]
  IC50: 3.07 µg/mL (≈ 8.69 µM)

## COc1ccc(/C=C/c2ccc3ccccc3c2)cc1O
A549
  IC50: 7.4 µM
P388
  IC50: 6.4 µM
[10]
  IC50: 5.4 µM
HT-29
  IC50: 5.4 µM

## COc1nc2ccc(Br)cc2cc1[C@@H](c1ccccc1)[C@@](O)(CCN(C)C)c1cccc2ccccc12 [BEDAQUILINE]
[12]
  MIC: 0.06 µg/mL (≈ 0.108 µM)

## COc1cc(OC)c(C2=CCN(C)CC2)c(O)c1C(=O)/C=C/c1ccc2ccccc2c1
HepG2
  IC50: 6.5 µM

## N#CCCCOc1ccc(-c2ccc(N)c3ccccc23)cn1
THP-1
  IC50: < 10 µM

## O=C1C(O)=C(C(Nc2ccccn2)c2ccccc2O)C(=O)c2ccccc21 (centres undefined)
[13]
  MIC: 25 µg/mL (≈ 67.1 µM)

## CC(=O)Oc1ccc2c(c1)c1c(n2C)C(=O)c2ccccc2C1=O
HL-60
  IC50: 1.01 µM

## O=C1c2cccc3cc([N+](=O)[O-])cc(c23)C(=O)C1CN1CCCC1 (centres undefined)
HeLa
  IC50: 0.3 µg/mL (≈ 0.925 µM)

## COc1cc(/C=C\c2ccc3ccccc3c2)cc(OC)c1OC [NAPHTHYLCOMBRETASTATIN]
A549
  IC50: 7.4 µM
P388
  IC50: 6.4 µM
[10]
  IC50: 5.4 µM
HT-29
  IC50: 5.4 µM

## COc1cc(/C=C/c2ccc3ccccc3c2)cc(OC)c1OC
A549
  IC50: 7.4 µM
P388
  IC50: 6.4 µM
[10]
  IC50: 5.4 µM
HT-29
  IC50: 5.4 µM

## COc1nc2ccc(Br)cc2cc1[C@H](c1ccccc1)N(C(=O)CN1CCOCC1)[C@@H](C)c1cccc2ccccc12
[12]
  MIC: 60 µg/mL (≈ 96.1 µM)

## Nc1cccc2cccc(/N=C3/CCC/C(=N\c4cccc5cccc(N)c45)C3)c12
Alternaria alternata
  inhibition zone (IZ): 10.5 mm
Staphylococcus aureus [14]
  inhibition zone (IZ): 10 mm

## CN(C)CCNC(=O)c1cc2c3c(cccc3c1)Sc1ccccc1-2
P388
  IC50: 0.176 µM

## COc1ccccc1NC(=O)c1cccc2ccccc12
Mycobacterium avium
  MIC: 54 µM (≈ 15 µg/mL)

## CCC(Cl)Cc1nc(CO)cn1Cc1ccc2cc(-c3nnn[nH]3)ccc2c1 (centres undefined)
Angiotensin II receptor
  IC50: 0.2 µM

## O=C(CCNc1c(Br)cc(Br)cc1C(=O)O)Nc1ccc2ccccc2c1
Rattus norvegicus [2]
  inhibition (INH): 67.37%

## COc1ccc2cc([C@H](C)C(=O)O)ccc2c1 [NAPROXEN]
Rattus norvegicus [2]
  inhibition (INH): 85.02%

## COc1cc(C(C)=O)c(O)c2ccc(O)cc12
Neutrophil [15]
  IC50: 1.9 µg/mL (≈ 8.18 µM)
Neutrophil [16]
  IC50: 3.17 µg/mL (≈ 13.6 µM)

## C(=C\c1ccc2ccccc2c1)/c1ccc2ccccc2c1
A549
  IC50: 7.4 µM
P388
  IC50: 6.4 µM
[10]
  IC50: 5.4 µM
HT-29
  IC50: 5.4 µM

## COc1ccc2[nH]c3c(c2c1)C(=O)c1ccccc1C3=O
HL-60
  IC50: 45.4 µM

## CN(C)CCOc1ccc2c(c1)c1c(n2C)C(=O)c2ccccc2C1=O
HL-60
  IC50: 0.28 µM

## NS(=O)(=O)c1ccc2c(c1)-c1nnsc1CC2
Cryptococcus neoformans
  MIC: 0.53 µg/mL (≈ 1.98 µM)

## C(=C/c1ccc2ccccc2c1)/c1ccc2ccccc2c1
A549
  IC50: 7.4 µM
P388
  IC50: 6.4 µM
[10]
  IC50: 5.4 µM
HT-29
  IC50: 5.4 µM

## Cc1nc(/N=N/c2cc(S(=O)(=O)O)c3cc([N+](=O)[O-])cc(S(=O)(=O)O)c3c2)cc(C=O)c1O
[17]
  IC50: 0.45 µM

## CN(C)CCNC(=O)c1cc2c3ccccc3sc2c2ccccc12
P388
  IC50: 0.428 µM

## COc1ccc2cc(-c3nnc(-c4cc(Cl)cc(Cl)c4)o3)ccc2c1
Rattus norvegicus [18]
  inhibition in vivo at 100 mg/kg: 71.1%

## c1ccc(-c2ccc3c(c2)CCCC3)cc1
Aspergillus niger
  MIC: 780 µg/mL (≈ 3740 µM)

## O=C(O)c1ccc2cc(-c3ccc(O)c(C45CC6CC(CC(C6)C4)C5)c3)ccc2c1 [O-DEMETHYLATED ADAPALENE]
[19]
  EC50: 11.9 µM

## COc1cc(OC)c(C2=CCN(C)CC2)c(O)c1C(=O)/C=C/c1cccc2ccccc12
HepG2
  IC50: 6.5 µM

## O=c1[nH]nc(COc2cccc3ccccc23)o1
Pichia kudriavzevii
  MIC: 64 µg/mL (≈ 264 µM)

## CC(=O)Oc1ccc2[nH]c3c(c2c1)C(=O)c1ccccc1C3=O
HL-60
  IC50: 1.31 µM

## CN1CCC(N)CC1c1ccc(-c2ccc(N)c3ccccc23)cn1 (centres undefined)
THP-1
  IC50: < 10 µM

## O=[N+]([O-])c1ccc2c(c1)-c1nnsc1CC2
Cryptococcus neoformans
  MIC: 0.53 µg/mL (≈ 2.27 µM)

## Nc1ccc(-c2ccc(Cc3cccnc3)c(O)c2)c2ccccc12
THP-1
  IC50: < 10 µM

## CS(=O)(=O)Nc1cc(Cc2ccc(Cl)cc2)c2ccccc2c1
[8]
  IC50: 10 µM

## CC(C)C(NC(=O)COc1ccc2ccccc2c1)C(=O)NN (centres undefined)
[20]
  EC50: 42 µg/mL (≈ 133 µM)

## Nc1nnc(COc2cccc3ccccc23)o1
Pichia kudriavzevii
  MIC: 64 µg/mL (≈ 265 µM)

## COc1ccc2cc(C(C)C(=O)NC(=S)Nc3ccc(CS(=O)(=O)Nc4cc(C)on4)cc3)ccc2c1 (centres undefined)
Rattus norvegicus [2]
  inhibition (INH): 89.77%

## Sc1nnc(COc2ccc3ccccc3c2)o1
Pichia kudriavzevii
  MIC: 64 µg/mL (≈ 248 µM)

## CC(=O)Oc1ccc2c(c1)c1c(n2CCN(C)C)C(=O)c2ccccc2C1=O
HL-60
  IC50: 0.17 µM

## CC(=O)c1ccnc(C2=CC(=O)c3ccccc3C2=O)c1
[11]
  MIC: 3.13 µg/mL (≈ 11.3 µM)

From ChEMBL document CHEMBL4325861, “Naphthalene, a versatile platform in medicinal chemistry: Sky-high perspective” (Eur J Med Chem, 2019)
